Data reported in ChEMBL document CHEMBL1201862, “PubChem BioAssay data set” (2004).
Calls of active or inactive are those of the source.

What was measured:
Cytochrome P450 2C19 = Cytochrome P450 2C19 (Homo sapiens, UniProt P33261); test: Cytochrome panel assay with activity outcomes. Panel member name: p450-cyp2c19 Compounds with AC50 equal or less than 10 uM are considered active; type: functional
Cytochrome P450 2D6 = Cytochrome P450 2D6 (Homo sapiens, UniProt P10635);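 further: CYP2D6 member of a cytochrome P450 panel assay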
[1] = molecular target: T1, Heat shock factor protein 1 (Mus musculus, UniProt P38532); test: decrease of HSF1-responsive luciferase luminescence – cell-based, NIH3T3, dose retest, confirmation (AID 2382); type: functional;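 further: NIH3T3 fibroblasts with HSF1-driven luciferase reporter stressed by proteasome inhibitor MG132; luminescence from HSF1-driven luciferase expression after 8 hours of MG132 stress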
T1 sequence (P38532 whole entry): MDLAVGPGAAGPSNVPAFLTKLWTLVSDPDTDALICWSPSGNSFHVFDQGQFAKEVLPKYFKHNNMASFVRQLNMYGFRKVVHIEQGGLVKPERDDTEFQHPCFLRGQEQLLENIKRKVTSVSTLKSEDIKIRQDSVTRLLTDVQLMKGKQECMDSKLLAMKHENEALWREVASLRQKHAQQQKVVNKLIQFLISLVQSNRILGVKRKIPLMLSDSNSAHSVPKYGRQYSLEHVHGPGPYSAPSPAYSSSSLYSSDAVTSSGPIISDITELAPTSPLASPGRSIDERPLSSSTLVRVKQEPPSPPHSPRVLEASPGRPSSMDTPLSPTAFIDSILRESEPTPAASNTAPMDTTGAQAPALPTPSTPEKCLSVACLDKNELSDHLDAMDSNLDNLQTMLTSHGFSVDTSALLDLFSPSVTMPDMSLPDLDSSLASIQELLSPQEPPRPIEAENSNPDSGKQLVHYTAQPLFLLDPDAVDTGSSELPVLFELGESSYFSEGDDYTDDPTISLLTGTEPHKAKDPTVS

[2] = NIH3T3 cell viability loss – ATP luminescence, mouse fibroblasts, counter-screen, dose response (AID 2010); type: functional, cell-based;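 further: cells exposed to compound for about 90 hours before reading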
[3] = Trypanosoma cruzi growth suppression in host cells – NIH3T3 host cells, beta-gal luminescence, confirmation (AID 2044); type: functional, cell-based;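 further: intracellular parasites grown in NIH/3T3 mouse fibroblasts as host cells; luminescent beta-galactosidase reporter signal from transgenic T. cruzi replicating inside host cells; inhibitors lower the luminescence signal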
[4] = viability of HCT116 lacking mutant beta-catenin – cell-based, human colon tumor, dose response (AID 1045); type: functional;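 further: HCT116 colon tumor cells with beta catenin knocked out; cells exposed to compound for 60 hours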
[5] = viability of PTEN-deleted HCT116 cells – cell-based, HCT116 PTEN knockout, dose response (AID 1047); type: functional;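 further: HCT116 colon tumor cells with PTEN knocked out; cells exposed to compound for 60 hours before readout; potency for loss of cell viability measured by luminescence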
[6] = molecular target: T2, RNA-binding protein pos-1 (Caenorhabditis elegans, UniProt G5EF15); test: disruptors of C. elegans POS-1 RNA interaction – biochemical, fluorescence polarization, dose response (AID 1964);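 further: purified POS-1 fused to maltose binding protein made in E. coli; potency of compounds blocking POS-1 binding to fluorescent RNA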
T2 sequence (G5EF15 whole entry): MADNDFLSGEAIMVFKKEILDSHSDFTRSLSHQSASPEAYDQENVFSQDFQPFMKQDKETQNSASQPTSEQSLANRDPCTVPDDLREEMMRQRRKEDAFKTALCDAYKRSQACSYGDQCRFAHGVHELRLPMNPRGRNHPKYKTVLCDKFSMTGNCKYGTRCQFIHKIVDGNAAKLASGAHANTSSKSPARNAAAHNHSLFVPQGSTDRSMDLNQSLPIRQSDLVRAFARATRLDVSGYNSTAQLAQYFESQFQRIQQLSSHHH

Cytochrome P450 2C9 = Cytochrome P450 2C9 (Homo sapiens, UniProt P11712)
[7] = molecular target: T3, Zinc finger protein mex-5 (Caenorhabditis elegans, UniProt Q9XUB2); test: potency of MEX-5 RNA-binding blockers – biochemical, C. elegans, fluorescence polarization, dose response (AID 1960)
T3 sequence (Q9XUB2 whole entry): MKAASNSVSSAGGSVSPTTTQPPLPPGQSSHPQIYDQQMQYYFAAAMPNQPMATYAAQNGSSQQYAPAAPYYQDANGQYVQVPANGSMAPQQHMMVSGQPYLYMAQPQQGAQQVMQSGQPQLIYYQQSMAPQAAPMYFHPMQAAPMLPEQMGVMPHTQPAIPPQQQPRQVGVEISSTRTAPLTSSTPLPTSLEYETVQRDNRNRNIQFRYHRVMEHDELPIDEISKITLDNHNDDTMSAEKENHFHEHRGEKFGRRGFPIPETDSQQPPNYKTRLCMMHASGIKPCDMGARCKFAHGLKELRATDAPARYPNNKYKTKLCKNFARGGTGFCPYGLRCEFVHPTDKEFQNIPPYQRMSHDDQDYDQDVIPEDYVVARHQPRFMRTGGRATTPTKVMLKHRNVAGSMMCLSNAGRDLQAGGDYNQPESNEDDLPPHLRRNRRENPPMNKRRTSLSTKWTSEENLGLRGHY

[8] = test system: Streptococcus sp. 'group A'; test: Streptococcus pyogenes SK(-)GAS viability under kanamycin – luminescence, BacTiterGlo, confirmation, counter-screen for streptokinase expression inhibitor project, dose response (AID 1900); type: functional, organism-based
Streptococcus = test: GAS UMAA2166 growth inhibition – luminescence, BacTiterGlo, counter-screen for streptokinase expression inhibitor project, dose response (AID 1915); type: functional, organism-based;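 further: potency for reduction of bacterial viability or growth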

Sequence of Cytochrome P450 2D6 (P10635 whole entry): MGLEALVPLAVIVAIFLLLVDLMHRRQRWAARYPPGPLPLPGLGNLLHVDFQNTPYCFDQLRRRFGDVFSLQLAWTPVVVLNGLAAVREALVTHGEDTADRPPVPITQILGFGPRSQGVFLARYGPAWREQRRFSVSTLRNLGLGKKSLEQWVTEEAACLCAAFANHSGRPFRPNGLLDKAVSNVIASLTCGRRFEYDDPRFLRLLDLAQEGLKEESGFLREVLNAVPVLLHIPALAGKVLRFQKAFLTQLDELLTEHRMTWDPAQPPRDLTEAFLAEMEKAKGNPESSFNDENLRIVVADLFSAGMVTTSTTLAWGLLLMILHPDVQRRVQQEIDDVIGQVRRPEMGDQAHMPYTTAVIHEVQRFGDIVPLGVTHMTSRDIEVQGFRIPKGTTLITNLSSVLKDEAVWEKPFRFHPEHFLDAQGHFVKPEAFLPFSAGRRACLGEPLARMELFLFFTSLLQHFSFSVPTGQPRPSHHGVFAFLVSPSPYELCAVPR
Sequence of Cytochrome P450 2C19 (P33261 whole entry): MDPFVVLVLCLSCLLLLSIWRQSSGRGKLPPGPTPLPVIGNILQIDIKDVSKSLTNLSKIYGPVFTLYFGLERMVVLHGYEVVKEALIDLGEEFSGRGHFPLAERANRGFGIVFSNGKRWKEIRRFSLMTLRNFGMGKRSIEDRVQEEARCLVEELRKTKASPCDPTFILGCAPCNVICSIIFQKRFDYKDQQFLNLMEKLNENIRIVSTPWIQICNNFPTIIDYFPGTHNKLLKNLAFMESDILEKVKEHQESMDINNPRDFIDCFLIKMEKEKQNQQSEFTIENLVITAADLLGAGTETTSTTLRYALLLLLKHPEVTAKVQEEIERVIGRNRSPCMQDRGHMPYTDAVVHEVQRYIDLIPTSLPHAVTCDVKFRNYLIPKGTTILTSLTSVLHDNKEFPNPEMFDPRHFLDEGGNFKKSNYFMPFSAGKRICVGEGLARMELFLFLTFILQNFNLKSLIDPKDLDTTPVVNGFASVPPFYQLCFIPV
Sequence of Cytochrome P450 2C9 (P11712 whole entry): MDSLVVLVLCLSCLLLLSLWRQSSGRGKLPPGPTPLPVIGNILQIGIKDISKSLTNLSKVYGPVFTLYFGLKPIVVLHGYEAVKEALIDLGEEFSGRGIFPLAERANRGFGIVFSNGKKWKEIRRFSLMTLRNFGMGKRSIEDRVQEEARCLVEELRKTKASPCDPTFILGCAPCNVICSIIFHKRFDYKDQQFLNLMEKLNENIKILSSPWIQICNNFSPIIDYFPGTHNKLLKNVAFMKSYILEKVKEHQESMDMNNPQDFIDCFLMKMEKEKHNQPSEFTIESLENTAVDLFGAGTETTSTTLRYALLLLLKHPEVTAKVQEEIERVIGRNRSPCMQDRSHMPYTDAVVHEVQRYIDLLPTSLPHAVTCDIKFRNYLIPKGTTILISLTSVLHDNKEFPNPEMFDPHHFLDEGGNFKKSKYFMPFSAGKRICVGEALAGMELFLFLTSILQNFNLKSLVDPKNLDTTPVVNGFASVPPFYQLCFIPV

Ic1cncc(OC[C@@H]2CCN2)c1
AC50 (Cytochrome P450 2C19; read-out: AC50): 15.8 µM (inconclusive)
AC50 (Cytochrome P450 2D6): 39.8 µM (inconclusive)

COc1cc(NC(=O)c2cccs2)c(C(=O)OCC(=O)c2cc(C)n(-c3ccc(F)cc3)c2C)cc1OC
EC50 [1]: 4.87 µM (active)

CCCCCCC1CC(C)(C(=O)CNc2nncs2)OC1=O (stereo not drawn)
EC50 [2]: 23.8 µM (active)
EC50 [3]: 1.3 µM (active)

O=C(NC1CCCCC1)C(c1ccc(F)cc1)N(C(=O)Cc1ccsc1)c1ccc(F)cc1 (stereo not drawn)
EC50 [2]: > 60 µM (not active)
EC50 [3]: > 60 µM (not active)

O=C(/C(=C(\[O-])c1ccccc1)[n+]1ccc2ccccc2c1)c1ccc([N+](=O)[O-])cc1
EC50 [1]: > 195 µM (not active)

CC(=O)Nc1nc(-c2ccccc2)nc(-c2ccccc2OC(C)=O)n1
EC50 [4]: 118 µM (active)
EC50 [5]: 73.1 µM (active)

CC1CCN(C(=O)CSc2nc(O)c3cnn(-c4ccc(Cl)cc4)c3n2)CC1
EC50 [1]: > 195 µM (not active)

Cc1ccc(CCNC(=O)CN2C(=O)COc3ccccc32)cc1
EC50 [2]: > 60 µM (not active)
EC50 [3]: 16.4 µM (active)

CN1CCN(c2ccc(S(=O)(=O)N3CCCCC3)cc2NC(=O)c2ccc(C#N)cc2)CC1
EC50 [2]: > 60 µM (not active)
EC50 [3]: 1.14 µM (active)

C#CCN1C(=O)C(O)(CC(=O)c2ccc3c(c2)OCCO3)c2ccccc21 (stereo not drawn)
EC50 [4]: 29.7 µM (active)
EC50 [5]: 29.7 µM (active)

Cc1noc(C)c1-c1nc(NCc2cccs2)c2ccccc2n1
AC50 (Cytochrome P450 2D6): 3.98 µM (inconclusive)

COc1ccc(CNc2cc(-c3cccnc3)ncn2)c(OC)c1
AC50 (Cytochrome P450 2D6): 39.8 µM (inconclusive)

CC(C)(C)N1[C@@H](CC(=O)O)c2cc(C(F)(F)F)ccc2S1(=O)=O
EC50 [1]: > 195 µM (not active)

CC(C)c1ccc(/C=C/C(=O)Nc2nc3ccc([N+](=O)[O-])cc3s2)cc1
EC50 [4]: 41.3 µM (active)
EC50 [5]: 23.3 µM (active)

Cc1ccc(NC(=O)CCN2C(=O)c3ccncc3C2=O)cc1
AC50 (Cytochrome P450 2C19; read-out: AC50): 39.8 µM (inconclusive)

CCc1ccccc1N1C(=O)/C(=C/c2ccc(N3CCN(C)CC3)o2)C(=O)NC1=S
EC50 [6]: > 300 µM (inconclusive)

CCCCCCn1c(N)c(C(=O)NCCN2CCOCC2)c2nc3ccccc3nc21
EC50 [4]: 19.7 µM (active)
EC50 [5]: 17.7 µM (active)

CC(C)OCCCn1c(=S)[nH]c2ncccc2c1=O
AC50 (Cytochrome P450 2C9): 1.78 µM (inconclusive)

CCOC(=O)C1=NNC2(c3ccc(Cl)cc3)C(=O)N(c3cc(C)cc(C)c3)C(=O)C12 (stereo not drawn)
AC50 (Cytochrome P450 2C19; read-out: AC50): 2.51 µM (inconclusive)

CC(=O)C1=C(c2ccccc2)NC(=O)NC1c1ccc(O)c(O)c1 (stereo not drawn)
EC50 [7]: 43.4 µM (active)
EC50 [6]: > 300 µM (not active)

O=C(NCc1ccccc1)C1=C[C@@H](c2ccc(C(F)(F)F)cc2)C[C@@H](OCc2ccc(CO)cc2)O1
EC50 [2]: > 60 µM (not active)
EC50 [3]: 0.669 µM (active)

COc1ccc(CCn2c(=N)c(C(=O)NC3CCCCC3)cc3c(=O)n4ccccc4nc32)cc1
EC50 [7]: 8.45 µM (inconclusive)
EC50 [6]: 21.6 µM (active)

CCCCCCCC(=O)NNC(=O)c1c(O)c2ccccc2n(CC)c1=O
EC50 [8]: 2.31 µM (active)
EC50 (Streptococcus): 6.17 µM (active)

COc1ccc(Cl)cc1C(=O)C1CCCN(Cc2cnc(N3CCOCC3)s2)C1 (stereo not drawn)
EC50 [2]: > 60 µM (not active)
EC50 [3]: 0.135 µM (active)

O=C(/C=C/c1ccco1)NC(=S)NNC(=O)c1ccco1
EC50 [7]: 15.7 µM (active)
EC50 [6]: 98.1 µM (active)

Cc1ncn(-c2ccccc2O)c1C
AC50 (Cytochrome P450 2D6): 3.16 µM (inconclusive)

Cc1ccc(C)c(-c2cc(C(=O)NCc3cccs3)c3ccccc3n2)c1
AC50 (Cytochrome P450 2C19; read-out: AC50): 3.55 µM (inconclusive)
AC50 (Cytochrome P450 2D6): 14.1 µM (inconclusive)

Cc1cc(N2C(=O)C(O)=C(C(=O)c3ccco3)C2c2ccc(O)cc2)no1 (stereo not drawn)
AC50 (Cytochrome P450 2C19; read-out: AC50): 35.5 µM (inconclusive)

Cc1ccc(-n2c(N)c(C(=O)Nc3c(C)n(C)n(-c4ccccc4)c3=O)c3nc4ccccc4nc32)cc1C
EC50 [4]: 11.5 µM (active)
EC50 [5]: 8.61 µM (active)

CC(C)=C1C2CCC1C1C(=O)N(c3ccc(C)c(C)c3)C(=O)C21 (stereo not drawn)
EC50 [1]: > 195 µM (not active)

COc1ccc(CNC(=O)C(=O)c2cn(CC(=O)N3CCOCC3)c3ccccc23)cc1
EC50 [1]: > 195 µM (not active)

Cc1ccc(-c2c[n+](CC(=O)c3ccc(Br)cc3)c3n2CCCCC3)cc1
EC50 [2]: > 60 µM (not active)
EC50 [3]: 0.465 µM (active)

COCc1cc(C)nc(SCC(=O)Nc2cc(C(F)(F)F)ccc2N2CCOCC2)c1C#N
EC50 [2]: > 60 µM (not active)
EC50 [3]: 0.807 µM (active)

O=C(Nc1ccccc1C(=O)Nc1nnc(C(F)(F)F)s1)c1ccccc1Cl
EC50 [8]: 1.36 µM (active)
EC50 (Streptococcus): 3.2 µM (active)

Oc1cccc2ccc(/C=C/c3ccc(Br)s3)nc12
EC50 [8]: 2.56 µM (active)
EC50 (Streptococcus): 4.33 µM (active)

Cc1cc(C)nc(NN2C(=O)C=CC2=O)n1
EC50 [7]: 40.8 µM (active)
EC50 [6]: > 300 µM (not active)

COc1cccc(Cn2c(=O)cnc3cnc(Nc4cccc(OC)c4)nc32)c1
AC50 (Cytochrome P450 2D6): 39.8 µM (inconclusive)

Cc1ccc(N2CC(C(=O)Nc3nnc(SCCN4CCOCC4)s3)CC2=O)cc1 (stereo not drawn)
EC50 [1]: > 195 µM (not active)

COc1ccc(NC(=O)CN(C)S(=O)(=O)c2ccc3c(c2)CCC(=O)N3)c(OC)c1
EC50 [1]: > 195 µM (not active)

CN(CCOc1ccccc1)CC(=O)Nc1ccc(Cl)c(S(=O)(=O)N(C)C)c1
EC50 [2]: > 60 µM (not active)
EC50 [3]: 0.503 µM (active)

C=CCN1C(=O)NC(=O)/C(=C(/CC)NC2CC2)C1=O
AC50 (Cytochrome P450 2C19; read-out: AC50): 22.4 µM (inconclusive)
AC50 (Cytochrome P450 2D6): 1.12 µM (inconclusive)

NS(=O)(=O)c1ccc2c(c1)C1C=CCC1C(C1CC=CCC1)N2 (stereo not drawn)
EC50 [7]: 20.7 µM (inconclusive)
EC50 [6]: 18.3 µM (active)

Cc1c(C(=O)O)cccc1-n1c(C)cc(/C=C(/C#N)C(=O)NCc2ccccc2)c1C
EC50 [7]: > 300 µM (not active)
EC50 [6]: > 300 µM (not active)

CCOc1ccc2ccccc2c1C1NC(=O)N(C)C(C)=C1C(=O)OCCOC (stereo not drawn)
EC50 [7]: > 300 µM (not active)
EC50 [6]: > 300 µM (not active)

COC(=O)N1CCC2(CCN(C(=O)Nc3ccccc3)CC2)CC1
AC50 (Cytochrome P450 2C19; read-out: AC50): 20 µM (inconclusive)

COc1ccc(CNc2ccc3c(c2)CCC3)cc1OC
EC50 [2]: > 30 µM (not active)
EC50 [3]: 15.4 µM (active)

NCCNc1ncnc2ccc(Cl)cc12
AC50 (Cytochrome P450 2D6): 3.16 µM (inconclusive)

CN(C)CCCn1c2ccccc2c2cnccc21
AC50 (Cytochrome P450 2D6): 3.98 µM (inconclusive)

Fc1ccc(SCCc2ccncc2)cc1
EC50 [2]: > 30 µM (not active)
EC50 [3]: 1.27 µM (active)

CCC(C)NCCOCCOc1ccc(Br)cc1 (stereo not drawn)
EC50 [2]: > 60 µM (not active)
EC50 [3]: 0.106 µM (active)

COc1ccc(OC)c(Nc2nc(-c3sc(NC(=O)C(C)(C)C)nc3C)cs2)c1
EC50 [1]: > 195 µM (not active)

C(=N\n1cncn1)/c1ccc(N2CCOCC2)cc1
EC50 [1]: > 195 µM (not active)

CN(CCCNC(=O)c1ccc(/C=N/O)nc1)CCCN(C)Cc1ccccc1
AC50 (Cytochrome P450 2C19): inconclusive

FC(F)(F)COc1nc(N/N=C/c2cccnc2)nc(N2CCCCC2c2ccccn2)n1 (stereo not drawn)
EC50 [2]: > 60 µM (not active)
EC50 [3]: 2.37 µM (active)

C/C(=N\Nc1nncc2ccccc12)c1ccc(Cl)c([N+](=O)[O-])c1
EC50 [1]: > 195 µM (not active)

Cc1nn(-c2ccccn2)c2c1C(c1ccccc1Cl)C1=C(N2)c2ccccc2C1=O (stereo not drawn)
EC50 [4]: 24.9 µM (active)
EC50 [5]: 24.7 µM (active)
